Test system: stallion sperm cells
Test: Motility of Hoechst-stained stallion sperm diluted in KMT with or without stimulant (Example 5)
Type: cell-based
Set-up: Motility 3h: unit not given here
Settings: for Motility 3h / Progressive 3h: Motility Stimulants, 2 mM caffeine or 2.5 mM NaPyruvate in KMT; for Motility 3h with stimulant / Progressive 3h with stimulant: in % (unit assumed)
Procedure: Sperm cells in ejaculates from three stallions were initially evaluated for volume, concentration, and motility. The remaining portion of each ejaculate was extended in KMT to 25×10^6 sperm/mL and stored at RT for 18 hr. The stored ejaculates were pelleted by centrifugation at 600 g for 10 min. Pelleted sperm cells were resuspended in KMT with Hoechst to generate sperm samples of 400×10^6 sperm/mL,12.4 μl Hoechst, adjusted to either 7.1 pH or 7.9 pH, and then incubated at 34° C. for either 30 min or 60 min. Stained sperm cell samples were extended with either 1 mL KMT with 1.5 μl/mL 5% red food dye; 1 mL KMT with 2.0 μl/mL 5% red food dye; 1 mL KMT with 2.5 μl/mL 5% red food dye; or 1 mL KMT with 3.0 μl/mL […] red food dye. Sperm cell samples were then evaluated for % dead and resolution by flow cytometry analysis, and motility was evaluated by further diluting treated samples in either 140 μl KMT: 20 μl sperm cells; 140 μl KMT 2 mM caffeine: 20 μl sperm cells; 140 μl KMT, 2.5 mM NaPyruvate: 20 μl sperm cells.

[1] = stain time 30 min (12 samples only)
[2] = stain time 60 min (12 samples only)

Structure (SMILES)	Motility 3h	Progressive 3h	Motility 3h with stimulant (food coloring 1.5 μl/mL)	Progressive 3h with stimulant (food coloring 1.5 μl/mL)	Motility 3h with stimulant (food coloring 2 μl/mL)	Progressive 3h with stimulant (food coloring 2 μl/mL)	Motility 3h with stimulant (food coloring 2.5 μl/mL)	Progressive 3h with stimulant (food coloring 2.5 μl/mL)	Motility 3h with stimulant (food coloring 3 μl/mL)	Progressive 3h with stimulant (food coloring 3 μl/mL)	Motility 3h with stimulant (pH 7.1, stain time 30 min)	Progressive 3h with stimulant (pH 7.1, stain time 30 min)	Motility 3h with stimulant (pH 7.1, stain time 60 min)	Progressive 3h with stimulant (pH 7.1, stain time 60 min)	Motility 3h with stimulant (pH 7.9, stain time 30 min)	Progressive 3h with stimulant (pH 7.9, stain time 30 min)	Motility 3h with stimulant (pH 7.9, stain time 60 min)	Progressive 3h with stimulant (pH 7.9, stain time 60 min)	Motility 3h with stimulant (stain pH 7.1)	Progressive 3h with stimulant (stain pH 7.1)	other results
Cn1c(=O)c2c(ncn2C)n(C)c1=O [Caffeine, caffeine]	67.71	66.56	66.67	65.42	68.33	67.5	68.75	67.92	67.08	65.42	66.67	65	70	70	66.67	65	67.5	65.83	68.54	67.5	Effect of stimulant on sperm cell motility (FIG. 5) (about 2 mM): stimulate motility; Motility 3h with stimulant (stain pH 7.9): 66.88; Progressive 3h with stimulant (stain pH 7.9): 65.63; Motility 3h with stimulant [1]: 66.67; Progressive 3h with stimulant [1]: 65; Motility 3h with stimulant [2]: 68.75; Progressive 3h with stimulant [2]: 67.92; Motility 3h with stimulant (stallion Gunsmoke): 66.25; Progressive 3h with stimulant (stallion Gunsmoke): 63.13; Motility 3h with stimulant (stallion Rowdy): 67.5; Progressive 3h with stimulant (stallion Rowdy): 67.5; Motility 3h with stimulant (stallion Sylekt): 69.38; Progressive 3h with stimulant (stallion Sylekt): 69.06
CC(=O)C(=O)O [Pyruvate, NaPyruvate]	65.1	62.29	64.58	62.08	65	60.83	65.83	64.58	65	61.67	64.17	60.83	67.5	66.67	65	60	64.17	62.5	65.83	63.13	Motility 3h with stimulant (stain pH 7.9): 64.38; Progressive 3h with stimulant (stain pH 7.9): 61.46; Motility 3h with stimulant [1]: 64.58; Progressive 3h with stimulant [1]: 60.42; Motility 3h with stimulant [2]: 65.83; Progressive 3h with stimulant [2]: 64.58; Motility 3h with stimulant (stallion Gunsmoke): 62.19; Progressive 3h with stimulant (stallion Gunsmoke): 56.56; Motility 3h with stimulant (stallion Rowdy): 67.19; Progressive 3h with stimulant (stallion Rowdy): 67.19; Motility 3h with stimulant (stallion Sylekt): 65.94; Progressive 3h with stimulant (stallion Sylekt): 63.13
